Results: the NIST ThermoML archive (doi:10.1016/j.jct.2011.01.014)

Tests used:
[1] = 101 kPa, Liquid; for mass density: Vibrating tube method; for speed of sound: sound velocity cell
[2] = xn = mol fraction of the nth substance listed; conditions: 101 kPa, Liquid, x2 = 0; for mass density: Vibrating tube method; for speed of sound: sound velocity cell

CO [methanol]
[1]
Conditions	mass density [kg/m3]	speed of sound [m/s]
288.15 K	796.694	1136.3
290.65 K	793.768	1127.7
293.15 K	791.418	1119.5
295.65 K	789.066	1111.3
298.15 K	786.71	1103
300.65 K	784.349	1094.7
303.15 K	781.983	1086.5
305.65 K	779.612	1078.3
308.15 K	777.234	1070.2
310.65 K	774.851	1062.1
313.15 K	772.458	1054
315.65 K	770.058	1045.9
318.15 K	767.647	1037.9
320.65 K	765.229	1029.9
323.15 K	762.809	1022

CO [methanol] + CC(=O)[O-].[NH3+]CCO
[2]
Conditions	mass density [kg/m3]	speed of sound [m/s]
288.15 K	796.694	1136.3
290.65 K	793.768	1127.7
293.15 K	791.418	1119.5
295.65 K	789.066	1111.3
298.15 K	786.71	1103
300.65 K	784.349	1094.7
303.15 K	781.983	1086.5
305.65 K	779.612	1078.3
308.15 K	777.234	1070.2
310.65 K	774.851	1062.1
313.15 K	772.458	1054
315.65 K	770.058	1045.9
318.15 K	767.647	1037.9
320.65 K	765.229	1029.9
323.15 K	762.809	1022

O [water]
[1]
Conditions	mass density [kg/m3]	speed of sound [m/s]
290.65 K	998.68	1474.7
295.65 K	997.65	1489.9
300.65 K	996.37	1503.4
305.65 K	994.86	1515.1
310.65 K	993.15	1525
313.15 K	–	1529.3
315.15 K	991.24	–
315.65 K	–	1533.2
318.15 K	–	1536.6
320.65 K	989.15	1539.6
323.15 K	988.04	1542.1

O [water] + CC(=O)[O-].[NH3+]CCO
[2]
Conditions	mass density [kg/m3]	speed of sound [m/s]
290.65 K	998.68	1474.7
295.65 K	997.65	1489.9
300.65 K	996.37	1503.4
305.65 K	994.86	1515.1
310.65 K	993.15	1525
313.15 K	–	1529.3
315.15 K	991.24	–
315.65 K	–	1533.2
318.15 K	–	1536.6
320.65 K	989.15	1539.6
323.15 K	988.04	1542.1
